Source: PMC10436493, “Unveiling the antitumor potential of novel N-(substituted-phenyl)-8-methoxycoumarin-3-carboxamides as dual inhibitors of VEGFR2 kinase and cytochrome P450 for targeted treatment of hepatocellular carcinoma” (Frontiers in Chemistry, 2023)
Read-outs that look alike come from different tables or passages of the source.

Assays:
[1] = system: human liver carcinoma HepG2 cell line; assay: MTT cytotoxicity assay on liver cancer cells; assay type: cell-based; settings: 24 h treatment
Method: Toward this, the HepG-2 cells were cultured and treated with tested compounds at different concentrations for 24 h and subsequently 3-(4,5-dimethylthiazol-2-yl)-2,5-diphenyltetrazolium bromide (MTT) dye was added. The colorimetric measurement was assessed using an ELISA plate reader at a wavelength of 570 nm.
Following this initial incubation period, the cells were exposed to varying concentrations of the synthesized compounds. The concentrations may have ranged from a lower to higher dose, depending on the experimental design. The molecules were dissolved in an appropriate solvent, DMSO, to obtain the desired concentrations. Control wells with no drug treatment were also included. […] The duration of the incubation may have varied depending on the specific experimental requirements. At the end of the 24-h treatment, (3-(4,5-dimethylthiazol-2-yl)-2,5-diphenyltetrazolium bromide) MTT dye was added to each well. MTT is a yellow tetrazolium salt that is utilized by metabolically active cells and converted into purple formazan crystals by mitochondrial enzymes in viable cells. […] DMSO is a common solvent used to dissolve the formazan crystals and extract the intracellular purple product. The plate was then subjected to colorimetric measurement using an ELISA plate reader at a wavelength of 570 nm. The intensity of the purple color is proportional to the number of viable cells and reflects the growth condition of the cells in each well. The results were analyzed by calculating the percentage of cell viability or cell growth inhibition compared to the control wells. […] The experiments were performed with at least three replicates for each concentration, and the entire experiment was repeated at least three times to ensure the reliability of the results.

HepG-2 cells [2] = system: HepG-2 cells; design: method as in Fayed et al., 2019; settings: ref Fayed et al., 2019; read-out: IC50, cytotoxic activity against HepG-2 cells; cited from earlier work
CYP2D6 = CYP2D6 (Homo sapiens, UniProt P10635)
Sequence of CYP2D6 (P10635 whole entry): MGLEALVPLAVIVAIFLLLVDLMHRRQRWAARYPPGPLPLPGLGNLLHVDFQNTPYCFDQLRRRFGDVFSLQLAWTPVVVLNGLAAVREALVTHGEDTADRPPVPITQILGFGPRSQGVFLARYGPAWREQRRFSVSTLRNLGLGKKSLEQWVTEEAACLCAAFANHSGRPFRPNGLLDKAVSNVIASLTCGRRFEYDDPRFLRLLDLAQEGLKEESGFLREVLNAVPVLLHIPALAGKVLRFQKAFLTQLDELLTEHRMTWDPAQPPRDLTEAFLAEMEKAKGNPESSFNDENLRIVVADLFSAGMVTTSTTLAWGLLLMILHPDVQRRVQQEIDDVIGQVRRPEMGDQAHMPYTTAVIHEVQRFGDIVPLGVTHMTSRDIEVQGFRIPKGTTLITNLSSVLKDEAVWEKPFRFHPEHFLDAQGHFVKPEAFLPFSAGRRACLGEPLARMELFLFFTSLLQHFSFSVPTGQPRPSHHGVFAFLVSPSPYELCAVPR
Method: Human cells, obtained from the American Type Culture Collection (ATCC), were cultivated in RPMI medium (Invitrogen/Life Technologies). The medium was supplemented with 1% penicillin-streptomycin, 10 μg/ml of insulin (Sigma), and to support cell growth and 10% Fetal Bovine Serum (FBS) (Hyclone) viability. […] Cells were seeded into a 96-well plate at a density of 1.2–1.8 × 10,000 cells/well in a volume of 100 μL of complete growth medium. […] Each concentration was tested in triplicate. A control well with only complete growth medium was included as a negative control. […] The culture media was quickly withdrawn, and the cultured cells were rinsed with PBS. […] After the incubation, the fluorescence intensity of the converted product was measured using a FLx800™ Fluorescence Microplate Reader at the excitation wavelength of 390 nm and the emission wavelength of 488 nm. […] The data were analyzed for statistical significance and presented as mean ± standard deviation (SD) from triplicate measurements.

HepG-2 cells [3] = assay: Annexin V-FITC/PI apoptosis assay; assay type: cell-based, human
Method: The Annexin V-FITC/PI assay is a well-established flow cytometric method to evaluate the apoptotic potential of bioactive compounds. The assay allows differentiation between apoptotic cells and live cells by using fluorescent dyes that bind to phosphatidylserine (PS) and DNA, respectively ([Galluzzi et al., 2018]; [Pfeffer and Singh, 2018]; [Tong et al., 2022]). In the present study, the assay was performed to explore the apoptotic effect of compound 7 (at its IC50 dose value) on HepG-2 cells. […] The Annexin V-FITC/PI assay is a well-established method to evaluate the apoptotic potential of chemical compounds. Inducing apoptosis is an appealing therapeutic approach for cancer treatment as it is a vital cellular process essential for preserving tissue balance and removing impaired or unnecessary cells. Disruption in the regulation of apoptosis can contribute to various diseases, such as cancer, highlighting its significance. […] The early stage of apoptosis is characterized by the translocation of PS from the inner to the outer leaflet of the plasma membrane, which can be detected by Annexin V-FITC staining. […] Further, the late stage of apoptosis is characterized by DNA fragmentation, which can be detected by PI staining. […] According to these findings, there is a notable connection between the ability of compound 7 to induce programmed cell death in HepG-2 cells and its antiproliferative effects.
The experimental method involved seeding HepG-2 cells at a density of 1.5 × 10^5 cells per well in a 6-well plate and incubating the cells for 12 h to allow for cell attachment and growth. Following this, the cells were treated with compound 7 at its IC50 concentration for 24 h to induce apoptosis. Apoptosis, a programmed cell death process, was detected by staining the cells with Annexin-V conjugated to fluorescein isothiocyanate (FITC) and Propidium Iodide (PI), and the stained cells were analyzed using a FACSCalibur cytometer and Cellquest software (BD Bioscience). Annexin-V is a protein that binds specifically to phosphatidylserine, a phospholipid that is externalized on the outer surface of the plasma membrane during early stages of apoptosis. FITC, a green-fluorescent dye conjugated to Annexin-V, is used to label the apoptotic cells. PI, a red-fluorescent DNA intercalating agent, is used to distinguish between apoptotic and necrotic cells based on their DNA content. The FACSCalibur cytometer is a flow cytometer used to analyze and quantify fluorescently labeled cells. The experimental method likely allowed for the quantification of apoptotic cells by analyzing the Annexin-V-FITC and PI staining patterns using flow cytometry. The results obtained from this method provided information on the induction of apoptosis by compound 7 in HepG-2 cells, further elucidating the mechanism of action of this compound as a potential anticancer agent. To ensure the reliability of the results, the experimental conditions were repeated at least three times, and the cells were exposed to therapeutically effective concentration of the compound, they were treated with compound 7 at a dose corresponding to its IC50 concentration. This ensured that the cells were subjected to an optimal concentration of the compound during the experiment. This experimental method yielded crucial information on the mechanism by which it exerts its anticancer effects.

HepG-2 cells [4] = assay: Cell cycle analysis by DNA flow cytometry (PI staining); assay type: cell-based, human; settings: HepG-2, compound at IC50 (0.75 µM), 24 h
Method: Based on this promising activity, compound 7 was selected for further evaluation to assess its effect on the cell cycle profile in HepG-2 cells. To evaluate the cell cycle, a biparametric cytofluorimetric analysis was conducted on HepG-2 cells treated with compound 7 at its IC50 concentration for a duration of 24 h. Propidium iodide (PI) was used as the staining agent for this analysis. (Figure 5). […] Similarly, the percentage of cells in the G2/M phase decreased from 11.46% in the control group to 6.4% after treatment with compound 7. In contrast, there was a notable increase in the percentage of cells in the S phase after treatment with Compound 7. […] These findings indicate that the treatment of HepG-2 cells with compound 7 leads to cell cycle arrest specifically in the S phase. This is evident from the decrease in the proportion of cells in the G1 and G2/M phases, accompanied by an increase in the percentage of cells residing in the S phase. Cell cycle arrest is a widely recognized mechanism utilized by anticancer agents to impede the excessive proliferation of cancer cells. By inducing cell cycle arrest, these agents disrupt the normal progression of the cell cycle, preventing cancer cells from dividing and multiplying uncontrollably. This therapeutic strategy helps to halt tumor growth and promotes the effectiveness of cancer treatments. The observed effects of compound 7 on the cell cycle profile of HepG-2 cells are indicative of its potential as an antitumor agent. […] Furthermore, the increase in the percentage of cells in the S phase upon treatment with Compound 7 may indicate DNA damage and activation of DNA repair mechanisms, which can contribute to the observed S phase arrest.
HepG-2 cells were seeded in […] at a density of 3.0 × 10^5 cells per well and incubated at 37°C for 12 h to allow cell attachment and growth. After the initial incubation, the cells were treated with compound 7 at its IC50 concentration dose value for 24 h. […] Flow cytometry analysis measures the fluorescence emitted by the cells stained with PI, which correlates with the DNA content. […]

HL-7702 normal cell line = assay: MTT cytotoxicity assay on normal liver cells; assay type: cell-based; settings: Homo sapiens, L02, 24 h treatment
Method: Following this initial incubation period, the cells were exposed to varying concentrations of the synthesized compounds. The concentrations may have ranged from a lower to higher dose, depending on the experimental design. The molecules were dissolved in an appropriate solvent, DMSO, to obtain the desired concentrations. Control wells with no drug treatment were also included. […] The duration of the incubation may have varied depending on the specific experimental requirements. At the end of the 24-h treatment, (3-(4,5-dimethylthiazol-2-yl)-2,5-diphenyltetrazolium bromide) MTT dye was added to each well. MTT is a yellow tetrazolium salt that is utilized by metabolically active cells and converted into purple formazan crystals by mitochondrial enzymes in viable cells. […] DMSO is a common solvent used to dissolve the formazan crystals and extract the intracellular purple product. The plate was then subjected to colorimetric measurement using an ELISA plate reader at a wavelength of 570 nm. The intensity of the purple color is proportional to the number of viable cells and reflects the growth condition of the cells in each well. The results were analyzed by calculating the percentage of cell viability or cell growth inhibition compared to the control wells. […]

VEGFR-2 = molecular target: T1, VEGFR-2 (Homo sapiens, UniProt P35968); assay: VEGFR-2 ELISA assay; assay type: cell-based
T1 construct: ability to target the VEGFR-2 receptor inHep-G2 cells; endogenous in cells; host or cells: Hep-G2
T1 sequence (P35968 20-1356): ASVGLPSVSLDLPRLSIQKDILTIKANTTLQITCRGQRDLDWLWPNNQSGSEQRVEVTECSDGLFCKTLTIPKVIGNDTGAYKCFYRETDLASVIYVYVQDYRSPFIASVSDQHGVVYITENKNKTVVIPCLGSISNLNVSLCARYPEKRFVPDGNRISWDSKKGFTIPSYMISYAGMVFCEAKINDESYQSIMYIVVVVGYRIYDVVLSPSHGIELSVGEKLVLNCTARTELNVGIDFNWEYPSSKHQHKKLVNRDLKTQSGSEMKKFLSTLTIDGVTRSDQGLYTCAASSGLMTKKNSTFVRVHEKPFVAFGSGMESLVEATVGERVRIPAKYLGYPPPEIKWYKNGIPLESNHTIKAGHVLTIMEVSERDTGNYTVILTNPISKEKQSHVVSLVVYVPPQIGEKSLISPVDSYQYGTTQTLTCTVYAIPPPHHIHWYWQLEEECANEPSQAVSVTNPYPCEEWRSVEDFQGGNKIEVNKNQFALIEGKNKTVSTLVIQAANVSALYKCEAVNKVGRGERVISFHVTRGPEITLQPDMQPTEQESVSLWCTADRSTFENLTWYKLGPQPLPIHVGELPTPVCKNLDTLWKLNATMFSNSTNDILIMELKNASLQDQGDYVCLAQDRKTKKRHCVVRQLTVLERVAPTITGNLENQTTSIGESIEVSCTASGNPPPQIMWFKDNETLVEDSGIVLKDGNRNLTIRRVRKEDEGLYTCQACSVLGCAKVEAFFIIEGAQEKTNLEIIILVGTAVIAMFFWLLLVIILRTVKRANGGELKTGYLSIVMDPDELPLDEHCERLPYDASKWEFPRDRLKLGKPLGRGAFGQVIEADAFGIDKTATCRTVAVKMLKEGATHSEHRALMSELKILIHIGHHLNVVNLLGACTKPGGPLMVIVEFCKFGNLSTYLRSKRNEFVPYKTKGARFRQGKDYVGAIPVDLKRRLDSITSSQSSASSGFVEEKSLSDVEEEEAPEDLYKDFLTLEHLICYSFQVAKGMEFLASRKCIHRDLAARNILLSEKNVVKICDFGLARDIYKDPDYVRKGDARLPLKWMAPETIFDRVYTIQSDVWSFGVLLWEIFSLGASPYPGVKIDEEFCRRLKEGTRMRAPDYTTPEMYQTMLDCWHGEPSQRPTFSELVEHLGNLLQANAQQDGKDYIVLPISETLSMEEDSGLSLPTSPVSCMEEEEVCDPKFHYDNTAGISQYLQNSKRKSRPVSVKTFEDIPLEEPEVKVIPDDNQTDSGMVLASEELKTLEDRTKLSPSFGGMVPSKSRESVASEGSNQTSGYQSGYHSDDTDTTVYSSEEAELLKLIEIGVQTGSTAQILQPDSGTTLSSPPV
Method: A 96-well plate was used for the assay, and each well was filled with a specific volume of the tested molecules and standard concentrations. The wells were coated with an immobilized antibody that specifically binds to VEGFR-2. After incubation, the wells were washed to remove unbound molecules, and biotinylated anti-human VEGFR-2 antibody was added to the wells. This biotinylated antibody specifically binds to VEGFR-2 that is captured by the immobilized antibody. Following another round of washing, a solution of conjugated streptavidin, which binds to the biotinylated antibody, was added to the wells. […] During this incubation, the bound conjugated streptavidin transformed the substrate into a colorful product. After terminating the reaction with an inhibitor solution, the optical density of the produced color was instantly determined at 450 nm with a spectrophotometer.

## COc1cccc2cc(C(=O)Nc3cccc(O)c3)c(=O)oc12 [Compound 3, N-(3-hydroxy)-phenyl 8-methoxycoumarin-3-carboxamide]
other
  melting point: 256 °C
[1]
  IC50: 3.81 ± 0.16 µM

## COc1ccc(Br)c2cc(C(=O)Nc3cccc(O)c3)c(=O)oc12 [Compound 4, N-(3-hydroxy)phenyl 5-bromo-8-methoxycoumarin-3-carboxamide]
other
  melting point: 289 °C
[1]
  IC50: 38.3 ± 1.62 µM

## COc1ccc(Br)c2cc(C(=O)Nc3cccc(OC(C)=O)c3)c(=O)oc12 [Compound 6, N-(3-acetoxy)phenyl 5-bromo-8-methoxycoumarin-3-carboxamide]
other
  melting point: 205 °C
[1]
  IC50: 13.4 ± 0.56 µM

## COc1ccc(-c2cc(-c3cc4ccccc4oc3=O)nc(NC(C)=O)c2C#N)cc1 [Compound 11]
HepG-2 cells [2]
  IC50: 4.5 µM

## CN[C@@H]1C[C@H]2O[C@@](C)([C@@H]1OC)n1c3ccccc3c3c4c(c5c6ccccc6n2c5c31)C(=O)NC4 [STU, staurosporine, reference compound]
CYP2D6; human
  IC50: 70.3 µg/mL

## COc1ccc(Br)c2cc(C(=O)Nc3cccc(O)c3)c(=O)[nH]c12 [Compound 8, N-(3-hydroxy)phenyl 5-bromo-8-methoxy-azacoumarin-3-carboxamide]
other
  melting point: 255 °C
[1]
  IC50: 4.79 ± 0.2 µM

## COc1cccc2cc(C(=O)Nc3cccc(O)c3)c(=O)[nH]c12 [Compound 7, N-(3-hydroxy)phenyl 8-methoxy-azacoumarin-3-carboxamide]
HepG-2 cells [3]; HepG-2, compound at IC50
  fold increase of early apoptotic cells vs control: 45 fold
  fold increase of late apoptotic cells vs control: 73 fold
  fold increase of necrosis vs control: 2.5 fold
  fold increase of total apoptotic cells vs control: 23 fold
HepG-2 cells [3]; HepG-2, compound at IC50 (0.75 µM), 24 h, control 0.21%
  percentage of apoptotic cells, late stage: 15.34%
HepG-2 cells [3]; HepG-2, compound at IC50 (0.75 µM), 24 h, control 0.55%
  percentage of apoptotic cells, early stage: 24.72%
CYP2D6
  IC50: 110 µM
  fold more potent than standard staurosporin toward CYP2D6: 2.1 fold
[1]
  IC50: 0.75 ± 0.03 µM
HepG-2 cells [4]; untreated control 11.46%
  percentage of cells in the G2/M phase: 6.4%
HepG-2 cells [4]; untreated control 42.19%
  percentage of cells in the S phase: 54.52%
HepG-2 cells [4]; untreated control 46.35%
  percentage of cells in the G1 phase: 39.08%
HL-7702 normal cell line
  IC50: 13.7 ± 1.8 µM
VEGFR-2; Hep-G2 cells, untreated 3,007 pg/mL
  VEGFR2 protein level: 1,086 pg/mL
VEGFR-2; summary graph, read-out: Angiogensis inhibtion IC50 (Figure 10) (converted)
  IC50: 110 µM
